# Measurements reported in patent US20110190269A1, “GAMMA SECRETASE MODULATORS” (priority 2010, published 2011).
# pEC50: −log10 of the molar value.
# Tested on: γ-secretase
# Experiment: Cellular γ-secretase assay (inhibition of Aβ42 secretion)
# Assay type: cell-based
# Conditions: human neuroglioma H4 cells overexpressing human APP, 22 hrs incubation
# Procedure, shortened: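 H4 neuroglioma cells overexpressing human APP got a ten-point compound dilution (0.4% DMSO final) for 22 h at 37 °C. Secreted Aβ42 in the supernatant was measured by electrochemiluminescence sandwich immunoassay (capture biotinylated 6E10, detection ruthenylated BAP15). IC50 came from a nonlinear regression fit.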
row,pEC50,Compound
1,6.73,"COc1cc(Nc2nc3n(n2)CCCN3c2ccc(F)c(F)c2)ccc1-n1cnc(C)c1 [Example 143, 4-(3,4-Difluorophenyl)-N-(3-methoxy-4-(4-methyl-1H-imidazol-1-yl)phenyl)-4,5,6,7-tetrahydro-[1,2,4]triazolo[1,5-a]pyrimidin-2-amine]"
2,7.16,"COc1cc(Nc2nc3c(-c4ccc(Cl)cc4)cc(C)c(C(C)(C)O)n3n2)ccc1-n1cnc(C)c1 [Example 144, 2-{8-(4-Chloro-phenyl)-2-[3-methoxy-4-(4-methyl-imidazol-1-yl)-phenylamino]-6-methyl-[1,2,4]triazolo[1,5-a]pyridin-5-yl}-propan-2-ol]"
3,7.57,"COc1cc(Nc2nc3c(-c4ccc(F)c(F)c4)ccc(C(C)(C)O)n3n2)ccc1-n1cnc(C)c1 [Example 145, 2-{8-(3,4-Difluoro-phenyl)-2-[3-methoxy-4-(4-methyl-imidazol-1-yl)-phenylamino]-[1,2,4]triazolo[1,5-a]pyridin-5-yl}-propan-2-ol]"
4,7.16,"COc1cc(Nc2nc3c(-c4ccc(F)c(F)c4)cc(C4CC4)cn3n2)ccc1-n1cnc(C)c1 [Example 146, [6-Cyclopropyl-8-(3,4-difluoro-phenyl)-[1,2,4]triazolo[1,5-a]pyridin-2-yl]-[3-methoxy-4-(4-methyl-imidazol-1-yl)-phenyl]-amine]"
5,7.48,"COc1cc(Nc2nc3c(-c4ccc(F)c(Cl)c4)cc(C4CC4)cn3n2)ccc1-n1cnc(C)c1 [Example 147, [8-(3-Chloro-4-fluoro-phenyl)-6-cyclopropyl-[1,2,4]triazolo[1,5-a]pyridin-2-yl]-[3-methoxy-4-(4-methyl-imidazol-1-yl)-phenyl]-amine]"
6,7.05,"COc1cc(Nc2nc3c(-c4ccc(F)cc4Cl)cc(C4CC4)cn3n2)ccc1-n1cnc(C)c1 [Example 148, [8-(2-Chloro-4-fluoro-phenyl)-6-cyclopropyl-[1,2,4]triazolo[1,5-a]pyridin-2-yl]-[3-methoxy-4-(4-methyl-imidazol-1-yl)-phenyl]-amine]"
7,6.43,"COc1cc(Nc2nc3c(C4=CCOCC4)cccn3n2)ccc1-n1cnc(C)c1 [Example 149, [8-(3,6-Dihydro-2H-pyran-4-yl)-[1,2,4]triazolo[1,5-a]pyridin-2-yl]-[3-methoxy-4-(4-methyl-imidazol-1-yl)-phenyl]-amine]"
